From patent publication US12569563B2, “Selective HDAC6 degraders and methods of use thereof” (DANA-FARBER CANCER INSTITUTE, INC., priority 2019, dated 2026) come the findings set out here.

The target of the test is T1, HDAC10 (Homo sapiens, UniProt Q969S8).
T1 construct: purchased Reaction Biology
T1 sequence (Q969S8 1-669): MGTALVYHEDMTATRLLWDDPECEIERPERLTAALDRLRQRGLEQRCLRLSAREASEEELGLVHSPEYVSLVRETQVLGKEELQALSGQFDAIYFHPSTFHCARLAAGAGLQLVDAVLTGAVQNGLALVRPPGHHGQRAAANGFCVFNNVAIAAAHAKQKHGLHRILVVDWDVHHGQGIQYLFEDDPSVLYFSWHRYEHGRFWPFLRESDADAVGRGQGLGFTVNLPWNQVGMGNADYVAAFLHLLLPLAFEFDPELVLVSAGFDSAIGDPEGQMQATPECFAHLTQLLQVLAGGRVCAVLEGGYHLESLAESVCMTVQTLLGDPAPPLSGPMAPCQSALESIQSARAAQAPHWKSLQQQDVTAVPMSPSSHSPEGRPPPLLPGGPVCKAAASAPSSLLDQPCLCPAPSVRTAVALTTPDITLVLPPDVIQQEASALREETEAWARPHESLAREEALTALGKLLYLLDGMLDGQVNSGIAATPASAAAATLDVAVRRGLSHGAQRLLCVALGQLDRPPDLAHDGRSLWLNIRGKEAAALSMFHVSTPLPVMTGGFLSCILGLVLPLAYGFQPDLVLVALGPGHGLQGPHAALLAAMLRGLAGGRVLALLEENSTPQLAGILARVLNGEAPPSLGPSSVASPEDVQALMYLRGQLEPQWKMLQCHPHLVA
The experiment in a line: HDAC assay from Reaction Biology, fluorogenic substrate. The conditions noted are these: 10-dose response curve; read-out: Compound IC50 HDAC10. It counts as biochemical. As to the method: Compounds 1 and 3 were tested in a HDAC assay from Reaction Biology® against 10 different HDACs.
Base Reaction buffer: 50 mM Tris-HCl, pH8.0, 137 mM NaCl, 2.7 mM KCl, and 1 mM MgCl2,
Add fresh: 1 mg/ml BSA, 1% DMSO
Fluorogenic HDAC General Substrate (HDAC1, HDAC2, HDAC3, HDAC6, HDAC10, and HDAC11): 50 μM, Arg-His-Lys-Lys(Ac)-AMC
• (HDAC8 only substrate: 50 μM, Arg-His-Lys(Ac)-Lys(Ac))-AMC Class2A Substrate (HDAC4, HDAC5, HDAC7, and HDAC9): Boc-Lys(trifluoroacetyl)-AMC For SIRTs 1-3, general Class1 HDAC substrate and 500 μM NAD+ For SIRT5, Ac-Lys-succ and 500 μM NAD+ Reaction Procedure Deacetylation Step • 1. Delivered 2× enzyme in wells of reaction plate except in the control wells and added buffer to control wells. • 2. Delivered compounds in 100% DMSO into the enzyme mixture by Acoustic technology (Echo550; nanoliter range). Spin down and pre-incubation. • 3. Delivered 2× Substrate Mixture (Fluorogenic HDAC Substrate and co-factor if applicable) in all reaction wells to initiate the reaction. Spin and shake. • 4. Incubated for 30 min for Class 2A, 1 hr for HDAC1, 2, 3, and 6, and 2 hr for the rest of HDACs and SIRTs at 30° C. with seal. Development Step • 5. Added Developer with Trichostatin A (or Nicotinamide for SIRTs) to stop the reaction and to generate fluorescent color. • 6. The fluorescence that was generated was detected with excitation (Ex) at […] and emission (Em) at 460 nM by the EnVision Multilabel Plate Reader (PerkinElmer®, Santa Clara, CA, USA). • 7. IC50 values, presented in Table 1, were derived from a 10-dose response curve.

As for `CN(C(=O)CCCCCCCNc1cccc2c1C(=O)N(C1CCC(=O)NC1=O)C2=O)c1ccc(NC(=O)CCCCCCC(=O)NO)cc1` (stereo not shown) [Compound 3, N^1-(4-(8-((2-(2,6-dioxopiperidin-3-yl)-1,3-dioxoisoindolin-4-yl)amino)-N-methyloctanamido)phenyl)-N^8-hydroxyoctanediamide], the 50% inhibitory concentration (IC50) was 6.58 µM.

In general, IC50 refers to the concentration needed to halve the response being measured.
